{"source": "paper PMC2033785", "about": "“High-affinity binding sites for gastrin-releasing peptide on human colorectal cancer tissue but not uninvolved mucosa” (British Journal of Cancer, 1995)", "key": {"[1]": {"test_system": "bombesin binding sites on human colorectal cancer tissue (GRP-preferring subtype)", "experiment": "Radioligand displacement binding on human colorectal cancer membranes", "conditions": "for Relative affinity for the binding site (GRP, BBS >> NMB) / Radioligand displacement achieved over the concentration range: five binding site-positive tumours; for Relative affinity for the binding site (GRP, BBS >> NMB): displacement of [125I]Tyr4-bombesin; for Radioligand displacement achieved over the concentration range: [125I]Tyr4-BBS"}, "[2]": {"test_system": "mouse colon cancer cell line MC26", "design": "method as in Narayan et al., 1990", "conditions": "[3H]thymidine incorporation and MTT assays; ref Narayan et al., 1990; cited from earlier work"}, "human colorectal cancers": {"test_system": "human colorectal cancers", "design": "method as in Radulovic et al., 1992", "conditions": "ref Radulovic et al., 1992; cited from earlier work"}, "matched mucosa": {"test_system": "matched mucosa", "design": "method as in Radulovic et al., 1992", "conditions": "ref Radulovic et al., 1992; cited from earlier work"}, "[3]": {"conditions": "competitor 1 x 10-11 to 1 x 10^-6 M"}}, "note": "No end group written: not given here."}
{"substance": "neuromedin B [NMB]", "values": [{"measurement": "Relative affinity for the binding site (GRP, BBS >> NMB)", "setting": "[1]", "value": "GRP, BBS >> NMB"}, {"measurement": "IC50 for displacement of [125I]Tyr4-BBS", "setting": "[1]; membrane preparations, approximately 200 pM radioligand, competitor 1 x 10-11 to 1 x 10^-6 M, six tubes per point, mean (± s.e.m.) of the five binding site-positive cancers", "value": "> lOOO"}, {"measurement": "50% displacement of specific binding: number of tumours in which achieved", "setting": "[1]; of the five binding site-positive tumours, competitor 1 x 10-11 to 1 x 10^-6 M", "value": "only achieved in two of the five binding site-positive tumours"}]}
{"substance": "bombesin [BBS]", "values": [{"measurement": "Radioligand displacement achieved over the concentration range", "setting": "[1]; [3]", "value": "Full radioligand displacement was achieved"}, {"measurement": "Relative affinity for the binding site (GRP, BBS >> NMB)", "setting": "[1]", "value": "GRP, BBS >> NMB"}, {"measurement": "Effect on growth", "setting": "[2]", "value": "stimulated growth"}, {"measurement": "Percentage of human colorectal cancers expressing bombesin binding sites", "setting": "human colorectal cancers", "value": 40, "unit": "%"}, {"measurement": "Matched mucosa binding site positive", "setting": "matched mucosa", "value": "none of the matched mucosa were binding site positive"}]}
{"substance": "gastrin-releasing peptide (VPLPAGGGTVLTKMYPRGNHWAVGHLM; ends and bridges not checked; UniProt P07492 24-50, looked up) [GRP, mammalian bombesin-like peptide (Bachem)]", "values": [{"measurement": "Radioligand displacement achieved over the concentration range", "setting": "[1]; [3]", "value": "Full radioligand displacement was achieved"}, {"measurement": "Relative affinity for the binding site (GRP, BBS >> NMB)", "setting": "[1]", "value": "GRP, BBS >> NMB"}]}
